| Compound | melting point [°C] |
| --- | --- |
| NC1(Cc2ccc(C(=O)Nc3ccncc3)cc2)C=CC=CC1 (stereo not given) | 76.8 to 77.6 |
| COc1ccc([C@@H]2[C@@H](CCCBr)C(=O)N2c2ccc(OC)cc2)cc1 | 70 to 73 |
| COC(=O)C=Cc1ccc(-c2ccccc2)cc1 | 144 to 147 |
| N#Cc1ccc(NC(=S)NCc2ccncc2)cc1 | 169 |
| C=C1CC(C(=O)O)NC(C(=O)O)C1 (stereo not given) | > 250 |
| CCN(C)C(C)C(=O)Nc1cccc2c1C(=O)c1c(NC(=O)C(C)N(C)CC)cccc1C2=O (stereo not given) | 129 to 130 |
| N#Cc1c(Cl)c2cc(F)ccc2n(Cc2ccccc2)c1=O | 228 |
| CC(C)(C)c1ccc2sc3cc(C#N)ccc3c(=O)c2c1 | 181 to 184 |
| CCCN(CCC)c1ccccc1C(C)C(C(N)=O)c1ccc(C(=O)O)cc1 (stereo not given) | 175 to 178 |
| CCCNP(=O)(OC)N1CC(NC(=O)OCc2ccccc2)C1=O (stereo not given) | 121 to 123 |
| COc1ccc(-c2c3c(cc4ccc(OC)cc24)C(=O)NC3=O)cc1 | 290 to 292 |
| O=C1c2ccccc2C(=O)N1CCCC#Cc1ccccn1 | 127 to 129 |
| COc1cccc(OC)c1CNC(=O)c1ccc2cnccc2n1 | 169 to 171 |
| C[C@H](C(=O)NC[C@H](COC(=O)C(C)(C)C)Cc1ccccc1)c1ccc(NS(C)(=O)=O)c(F)c1 | 40 to 42 |
| C(=C\c1nc(COc2ccc(CCCCCCn3cncn3)cc2)co1)/c1ccccc1 | 90 to 91 |
| OCCCCC=CCCc1ccc(OCc2ccccc2)cc1 | 65 to 67 |
| CC(c1c[nH]cn1)c1cccc2c1OC(C)(C)OC2 (stereo not given) | 118 |
| CNC(=O)NC(Cc1c[nH]c2ccccc12)C(=O)OCc1cc(C)cc(C)c1 (stereo not given) | 66 to 68 |
| CCC(c1ccccc1)c1n[nH]c2c1c(=O)n(-c1ccccc1)c1ncccc21 (stereo not given) | 233 to 235 |
| CCS(=O)(=O)c1cccc(-c2nc(=O)c3ccccc3s2)n1 | 202 to 203 |
| OCc1ccc(OCc2csc(-c3ccccc3)n2)cc1 | 145 to 146 |
| CCOC(=O)C1=Cc2cc(Cl)cc(-c3ccccc3)c2OC1C(F)(F)F (stereo not given) | 196 to 198 |

| Compound | melting point [°C] |
| --- | --- |
| O=C(NCc1ccc(C=NNO)cc1)C1Cc2ccccc2N1S(=O)(=O)c1ccc(-c2cccc(C(F)(F)F)c2)cc1 (stereo not given) | 110 to 115 |
| CCCSc1nc(-c2ccc(C#N)cc2)cn1-c1ccc(C#N)cc1 | 117 to 122 |
| CCC(=O)c1ccc(C(CC(=O)Nc2cc(C(N)=O)ccc2C(C)(C)C)CC(C)C)c(OC)c1 (stereo not given) | 186 to 187 |
| CCC(C)(C)c1csc(C(C#N)=C(O)c2c(F)cccc2F)n1 | 195 to 196 |
| CCCCCCn1c2cc(CO)ccc2c2ccc(CO)cc21 | 98 to 99 |
| CCCCc1ncc(CC(Cc2ccccc2)C(=O)O)n1Cc1ccccc1Cl (stereo not given) | 118 to 120 |
| Cc1cc(NC(=O)C(C)(O)COc2cccc(C(F)(F)F)c2)ccc1[N+](=O)[O-] (stereo not given) | 84 to 87 |
| Cc1c(CO)oc2c(Br)cccc12 | 103 |
| OCCON=Cc1cnc2ccccc2c1 | 129 |
| CN1c2ccc(-c3ccccc3)cc2S(=O)(=O)c2cc(-c3ccccc3)ccc21 | 242 to 245 |
| CCCCCCCCCCc1ccc2cc(/C=C/c3cc4ccc(CCCCCCCCCC)cc4cc3SC)c(SC)cc2c1 | 117 to 118 |
| O=C(O)CNC(=O)c1ncc2c(Cl)cccc2c1O | 232 |
| COc1ccc(C2OCC(COC(C(F)(F)F)(C(F)(F)F)C(F)(F)F)(COC(C(F)(F)F)(C(F)(F)F)C(F)(F)F)CO2)cc1 | 89 to 90 |
| COC(=O)[C@H]1[C@H](C(=O)OC)C1(Br)C=O (stereo not given in full) | 52 |
| O=C(O)CCc1ccc(OCCSCCO)cc1 | 64 to 65 |
| COC(=O)[C@@H](NC(=O)OC(C)(C)C)[C@H](O)c1ccccc1 | 101 to 102 |
| O=C(NCC1CC1)c1c(NC(=O)c2cc(C(F)(F)F)nn2-c2ncccc2Cl)c(Br)cc2cn[nH]c12 | 144 to 150 |
| NS(=O)(=O)c1cc(C(=O)O)cc(NCc2ccccc2)c1Nc1ccccc1 | 248 to 249 |
| COC(=O)c1ccccc1N(c1ccccc1)C1(c2ccc(N(C)C)cc2)OC(=O)c2ccccc21 (stereo not given) | 92.5 to 102 |
| N#CCn1nc(-c2c(-c3ccccc3)nn3ccccc23)ccc1=O | 218 to 219 |
| COCCOCCOc1cc(OC)c(-c2cccs2)cc1/C=C/C(=O)c1ccc(C(=O)O)cc1 | 145 to 146 |

The next lines start with the values.

| melting point [°C] | Compound |
| --- | --- |
| 88 to 90 | CS(=O)c1ccc(Oc2ccc(Cl)c(Cl)c2)nc1 (stereo not given) |
| 221 | Cn1cc(C2=C(c3ccccc3OCC3COC(C)(C)O3)C(=O)NC2=O)c2ccccc21 (racemic) |
| 112 to 113 | O=C(O)COc1ccc(SCc2cc(-c3ccc(C(F)(F)F)cc3)on2)c2c1CCCO2 |
| 200 to 202 | CCOC(=O)c1cnc2sc(-c3cccnc3)nn2c1=O |
| 93 to 95 | CCOC(=O)C(OC)C(=O)Nc1ccc(Br)cc1C (stereo not given) |
| 168 to 170 | COc1cc(O)ccc1N |
| 292 | NS(=O)(=O)c1ccc(-c2nc(-c3cnn4c(C(F)(F)F)cc(-c5ccc(C(F)(F)F)cc5)nc34)no2)cc1 |
| 151 to 153 | CCOP(=O)(OCC)C(Nc1ncc(-c2ccccc2)s1)P(=O)(OCC)OCC |
| 171 to 172 | CCCc1cc(=O)c(C(=O)OC)c(C)[nH]1 |
| 187 to 189 | CCNC(=O)C1=C(C(=O)Nc2cc(OC3CCCC3)c(Cl)cc2F)CCCC1 |
| 180 to 181 | Cc1c(NC(=O)CC(C)(C)C)c(C)c2c(c1-c1ccc(N(C)C)cc1)OCC2c1ccc(C(C)C)cc1 (stereo not given) |
| 195 to 198 | OCC1CCCN1c1cc(N2CCOCC2)nc(-n2c(C(F)F)nc3c(O)cccc32)n1 (stereo not given) |
| 179 to 181 | C/C(=C\c1ccc(C(=O)O)cc1)c1ccc2c(c1)C(C)(C)CCO2 |
| 168 to 170 | CC(=O)NCC1CN(c2ccc(N3CCN(c4nc(C)ns4)CC3)c(F)c2)C(=O)O1 (stereo not given) |
| 162 | CCCCc1nn2c(c1Cc1ccc(-c3ccccc3)c(C(=O)O)c1)CCCC2 |
| 124 to 125 | CCn1c([N+](=O)[O-])cnc1C=CN(C)C |
| 119 to 121 | Cc1cc(C)n(-c2ccc(N3CCOCC3)nn2)n1 |
| 180 | O=c1[nH]c2ccncc2c(=O)o1 |
| 126 to 128 | CC(=O)NCCCC(=O)c1ccc(Cl)cc1CCC(=O)N1CCN(C)CC1 |

| melting point [°C] | Compound |
| --- | --- |
| 101 | COc1cc(SC2SCC(OC(C)=O)C(OC(C)=O)C2OC(C)=O)cc(OC)c1OC (stereo not given) |
| 91.5 to 93.5 | CCOC(=O)C(C(=O)OCC)c1ccc([N+](=O)[O-])cn1 |
| 150 to 152 | Cn1c(=O)cnn(-c2cc(N)c(Cl)cc2F)c1=O |
| 140 to 142 | Cc1ccc(C(=O)NC#N)cc1 |
| 95 to 96 | COC(=O)CCC/C=C\[C@@H]1C[C@@H](NS(=O)(=O)c2ccc(Cl)cc2)CN1S(=O)(=O)c1ccc(Cl)cc1 |
| 231 | O=[N+]([O-])c1ccc(O)c(Cn2c(=S)sc3ccccc32)c1 |
| 132 to 134 | CCOCC(=O)Nc1ccc(Br)c(-n2nc(CC)n(Cc3ccc(-c4ccccc4S(=O)(=O)NC(=O)OC(C)(C)C)cc3F)c2=O)c1 |
| 199 to 200 | COc1ccc(-c2cc(=O)cc(N3CCOCC3)s2)cc1 |
| > 300 | Cc1nn(C)c2c1nc(O)c1c(C(=O)O)cnn12 |
| 239 to 240 | Cn1c(=O)c(-c2c(Cl)cccc2Cl)cc2cnc(N)cc21 |
| 144 to 146 | O=C1C[C@@H]2O[C@@H](CS(=O)(=O)c3ccccc3)CN12 (racemic) |
| 125 to 128 | CC(=O)Nc1ccccc1N1CCc2ccccc21 |
| 128 to 132 | CCCCC[C@@H](CNC(=O)Nc1c(N2CCOCC2)ncnc1N1CCOCC1)c1cccc2c1OCO2 |
| 188 to 190 | CC(=O)NC[C@H]1CN(c2cc(F)c(N3CCC(n4nnc(N5CCN(Cc6ccccc6)CC5)n4)CC3)c(F)c2)C(=O)O1 |
| 128 to 129 | CNCc1cc(C(=O)c2cccs2)cc(C(C)(C)C)c1O |
| 124 to 125 | Cc1cc(C)c(NC(=S)C2(C)CCc3c(C)c(O)c(C)c(C)c3O2)cc1C (stereo not given) |
| 183 to 184 | COc1nc(C)cnc1NS(=O)(=O)c1cccnc1-c1ccc(N(C)C)cc1 |
| 147 to 149 | Cc1ncccc1C(=O)NCC1CCN(C[C@H]2COc3cccc(Cl)c3O2)CC1 |
| 280 to 283 | COc1ccc2c(c1)c(=O)c(-c1nnnn1C)cn2C |

| melting point [°C] | Compound |
| --- | --- |
| 161 to 162 | CCOC(=O)c1c(NC)n[nH]c1C |
| 116 to 118 | CCn1nc(N)nc1NCCCOc1cccc(CN2CCCCC2)c1 |
| 91 to 100 | CN(C)CC/C=C1/c2cc(Br)ccc2COc2ccccc21 |
| 61 to 61.3 | C[C@@H](c1ccccc1)N1CC[C@@H](C2(N(Cc3ccccc3)Cc3ccccc3)CC2)C1 |
| 162 to 164 | Nc1ccc(C(=S)N2CCCCC2)cc1 |
| > 220 | COc1ccc2c(c1)OC(CN)C2 (stereo not given) |
| 110 to 112 | O=[N+]([O-])c1cc2n(n1)CCOC2 |
| 108 to 110 | CC(C)(C)OC(=O)NC1CCN(c2nc3c(cc2F)c(=O)n(N)c(=O)n3C2CC2)C1 (stereo not given) |
| 207 to 208 | O=[N+]([O-])c1cn2c(n1)O[C@@H](CN1CCN(Cc3ccc(-c4ccccc4)cc3)CC1)C2 |
| 175 to 178 | COCCOc1cc(C(F)(F)F)cnc1-c1nc(C)c(-c2ccnc(Nc3ccc(N4CCOCC4)cc3)n2)s1 |
| 55 to 57 | COC(=O)CSc1ccc(OC)cc1C(=O)OC |
| 183 to 186 | Cn1cc(-c2ccccc2S(N)(=O)=O)cn1 |
| 221 to 223 | CC(=O)NC[C@H]1CN(c2ccc(C(=O)c3cnc4c(Br)cc(C)cn34)cc2)C(=O)O1 |
| 78 to 79 | CCOP(=O)(CNc1cc(Oc2ccc(C(F)(F)F)cc2Cl)ccc1[N+](=O)[O-])OCC |
| 195 to 198 | Cc1c(-c2ccnc3cc(Cl)ccc23)c2cc(NS(C)(=O)=O)ccc2n1CC(=O)O |
| 293 to 295 | NC(=O)c1ccc(-c2cnc3[nH]c(=O)n(CC4CCCCC4)c3n2)cc1 |
| 71 to 73 | CCOC(=O)c1c(C)nn(-c2ccc(Br)cc2)c1C |
| 208 | CC(=O)N[C@H]1CC[C@H](CCN2CCN(c3nc(C)cc4occc34)CC2)CC1 |
| 178 to 179 | CCn1ncc2c3onc(-c4cccc(Cl)c4)c3cnc21 |

Reference: a melting point compilation (Tetko et al.; mined from patent text by program, amines drawn as free bases though some values may be those of a salt)
